“Also recorded” adds a separate entry of the source.
Legend:
[1] = target: T1, PPARα LBD (Homo sapiens, UniProt Q07869); test: In vitro co-purification with His-tagged PPARα LBD, MS; type: binding; details: incubated with 10 μM idebenone
T1 construct: His-tagged PPARα, δ and γ LBDs were expressed in bacteria, Ni-NTA purified; His; made in house; host or cells: bacteria (E. coli)
T1 sequence (Q07869 239-466 limits assumed): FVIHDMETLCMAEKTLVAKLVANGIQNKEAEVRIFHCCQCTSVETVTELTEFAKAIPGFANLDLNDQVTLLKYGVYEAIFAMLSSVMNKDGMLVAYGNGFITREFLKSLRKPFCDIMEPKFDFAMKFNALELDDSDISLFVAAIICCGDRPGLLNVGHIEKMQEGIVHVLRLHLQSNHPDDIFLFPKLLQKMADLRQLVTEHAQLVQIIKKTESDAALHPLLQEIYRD
Procedure: (§1) To see if idebenone can bind to directly to other PPAR LBDs, His-tagged PPARα, δ and γ LBDs were expressed in bacteria, Ni-NTA purified and incubated with 10 μM idebenone. After several washes in a 10 kDa cut off Amicon centrifuge filter (Millipore), lipids were extracted and analyzed by MS.

[2] = target: T2, PPARγ LBD (Homo sapiens, UniProt P37231); test: In vitro co-purification with His-tagged PPARγ LBD, MS; type: binding; details: incubated with 10 μM idebenone
T2 construct: His-tagged PPARα, δ and γ LBDs were expressed in bacteria, Ni-NTA purified; His; made in house; host or cells: bacteria (E. coli)
T2 sequence (P37231 238-503 limits assumed): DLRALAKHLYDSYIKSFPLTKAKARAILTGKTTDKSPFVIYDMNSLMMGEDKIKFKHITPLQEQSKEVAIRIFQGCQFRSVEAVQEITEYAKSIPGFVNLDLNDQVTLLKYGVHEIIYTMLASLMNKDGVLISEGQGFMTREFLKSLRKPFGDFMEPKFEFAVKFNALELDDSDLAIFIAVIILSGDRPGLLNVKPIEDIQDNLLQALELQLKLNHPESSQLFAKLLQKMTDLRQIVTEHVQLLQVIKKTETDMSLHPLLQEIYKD
Procedure: as §1

[3] = target: T3, hPPARγ (Homo sapiens, UniProt P37231); test: HEK293 cell culture luciferase reporter assay, hPPARγ
T3 sequence (P37231 188-477 isoform P37231-2): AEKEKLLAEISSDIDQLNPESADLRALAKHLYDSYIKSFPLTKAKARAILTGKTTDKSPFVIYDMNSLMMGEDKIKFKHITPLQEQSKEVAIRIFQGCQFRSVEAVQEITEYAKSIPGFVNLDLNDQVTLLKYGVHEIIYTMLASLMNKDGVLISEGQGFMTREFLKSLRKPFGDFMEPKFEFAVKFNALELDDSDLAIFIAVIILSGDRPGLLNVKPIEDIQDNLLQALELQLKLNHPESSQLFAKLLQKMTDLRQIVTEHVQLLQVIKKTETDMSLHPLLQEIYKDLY

[4] = target: T4, PPARα (Homo sapiens, UniProt Q07869); test: PPARα ligand trap zebrafish GFP reporter assay; type: in vivo; parameters: pLT PPARα (aa 178-468) and pLT PPAR γ (aa 188-477) lines; expressed in transfected cells; host or cells: transgenic zebrafish embryos (ligand-trap line); details: transgenic embryos, 48 hpf
T4 sequence (Q07869 178-468): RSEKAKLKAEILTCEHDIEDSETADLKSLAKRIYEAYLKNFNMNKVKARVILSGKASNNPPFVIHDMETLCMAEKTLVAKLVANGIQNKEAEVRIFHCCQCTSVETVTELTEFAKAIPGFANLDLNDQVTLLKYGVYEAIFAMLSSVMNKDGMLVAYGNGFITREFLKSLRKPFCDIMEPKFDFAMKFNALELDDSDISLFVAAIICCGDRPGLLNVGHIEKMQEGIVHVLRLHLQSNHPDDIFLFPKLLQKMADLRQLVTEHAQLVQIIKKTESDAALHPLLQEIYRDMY
Procedure: Zebrafish were maintained at 28.5° C. on a 14/10 hour light/dark cycle and staged according to hours (h) or days (d) postfertilization. To generate pLT PPARα (aa 178-468) and pLT PPAR γ (aa 188-477) lines, plasmids were pre-digested with I-SceI (0.8 μg DNA, 1 μl I-SceI (New England Biolabs) 2 μl 10×I-SceI buffer, 1 μl BSA) for 20 min at 37° C. Digested DNA was adjusted with 0.1% phenol red. 4.6 nl of DNA solution was injected into the blastomeres of early one-cell stage embryos.
F0 fish were crossed with WT fish to identify germ-line transformed animals, as determined by agonist treatments and GFP expression. F1 progeny showing strong and consistent GFP responses were selected for F2 homozygote production. To avoid reporter GFP silencing of stable transgenic LT lines, homozygous fish showing strong and consistent GFP responses were selected for continued propagation of next generations.
PPARγ ligand trap zebrafish screens were performed under optimized conditions in 96-well format using the ImageXpress Velos Laser Scanning Cytometer. 1 or 2 dpf embryos were heat induced (28→37° C.) for 30 minutes, de-chorionated and then arrayed in 96-well plates (5 per well). […] Embryos were incubated at 28° C. for 14 h, anesthetized with Tricaine (Sigma, Cat. # A-5040) and then analyzed for GFP fluorescence using the ImageXpress Velos Laser Scanning Cytometer.

[5] = target: T5, human PPARγ LBD (residues 206-477) (Homo sapiens, UniProt P37231); test: Stargazer thermostabilization assay; type: binding; details: 0.2 mg/ml PPARγ LBD, heated to 80° C.
T5 construct: human PPARγ LBD (residues 206-477), expressed in pRSET; His tag (implied by Ni-NTA purification and the pRSET vector); made in house; host or cells: E. coli BL21 codon plus (pRSET)
T5 sequence (P37231 206-477 isoform P37231-2): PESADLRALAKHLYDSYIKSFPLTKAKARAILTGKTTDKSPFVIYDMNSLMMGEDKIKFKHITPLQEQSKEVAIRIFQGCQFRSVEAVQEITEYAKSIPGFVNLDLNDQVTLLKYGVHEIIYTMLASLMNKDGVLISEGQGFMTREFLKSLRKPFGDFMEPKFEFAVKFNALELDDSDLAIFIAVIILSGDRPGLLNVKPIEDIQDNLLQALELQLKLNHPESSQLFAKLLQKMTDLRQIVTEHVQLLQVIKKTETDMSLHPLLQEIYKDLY

Which “Binding to PPARα LBD (co-purification, MS)” value [1] does the source give for `COC1=C(OC)C(=O)C(CCCCCCCCCCO)=C(C)C1=O` [Idebenone, 2-(10-hydroxydecyl)-5,6-dimethoxy-3-methyl-2,5-cyclohexadiene-1,4-dione] here?
The value was “strong binding”.

What about the “Binding to PPARγ LBD (co-purification, MS)” value [2] of the same compound?
The value was “strong binding”.

What about the EC50 [3] of the same compound?
Its EC50 is 2500 nM.

And the “Maximum activation level versus full agonist, PPARγ” value ([3]; HEK293, full agonist rosiglitazone)?
The value was “significantly lower than those obtained using the full agonists”.

What about the “GFP response of PPARα LT line” value [4] of the same compound?
Its value is “robust response; also recorded: dual agonists for PPARα and PPARγ”.

And the “Shift of thermal denaturation transition temperature” value [5]?
The value was 5.5 °C.
